Where a name gives a salt, the structure may show the parent alone.
Tests used:
[1] = system: NCI-H292 lung cancer cells; test: FDA drug screening, complete media vs cholesterol-free media with simvastatin (TABLE 2); assay type: cell-based, human; details: for Cholesterol-free media + simvastatin (0.04 μM) / Complete Media: NCI-H292 cells
[2] = system: NCI-H292 lung cancer cells; test: FDA drug screening, complete media vs cholesterol-free media without statin (TABLE 1); assay type: cell-based, human
[3] = cholesterol-free media with simvastatin 0.04 μM, cell growth value in FDA drug screen
[4] = complete media, cell growth value in FDA drug screen
[5] = complete media minus cholesterol-free media + simvastatin, >0 enhanced anti-cancer activity, about 0 neutral, <0 antagonist
[6] = Complete minus Cholesterol-free, greater than 0 enhanced anti-cancer activity, about 0 neutral, below 0 antagonists
[7] = NCI-H292 cells in cholesterol-free media without statin
[8] = NCI-H292 cells in complete media
[9] = FDA library drug in cholesterol-free media with simvastatin 0.04 μM
[10] = FDA library drug in complete media
[11] = complete media vs cholesterol-free media + simvastatin (0.04 μM), […]
[12] = Complete minus Cholesterol-free, […]
[13] = NCI-H292 cells, FDA drug library screen, cholesterol-free media without statin
[14] = NCI-H292 cells, FDA drug library screen, complete media
[15] = FDA drug library screen, cholesterol-free media with simvastatin 0.04 μM
[16] = FDA drug library screen, complete media
[17] = NCI-H292 cells, cholesterol-free media without statin
[18] = complete media vs cholesterol-free media + simvastatin (0.04 μM), >0 enhanced anti-cancer activity, about 0 neutral, <0 antagonist
[19] = complete vs cholesterol-free media, greater than 0 enhanced anti-cancer activity, about 0 neutral, below 0 antagonists
[20] = NCI-H292 cells, cholesterol-free media without statin, FDA drug library screen
[21] = NCI-H292 cells, complete media, FDA drug library screen
[22] = Complete minus Cholesterol-free, greater than 0 enhanced anti-cancer activity, about 0 neutral, below 0 antagonist

CCCCC[C@H](O)/C=C/[C@H]1[C@H](O)CC(=O)[C@@H]1C/C=C\CCCC(=O)O [Prostaglandin E2]
Cholesterol-free media + simvastatin (0.04 μM) [1, 3]: 0.8899 | Complete Media [1, 4]: 0.9562 | Difference [1, 5]: 0.07 | Difference [2, 6]: −0.61 | Cholesterol-free [2, 7]: 1.546 | Complete [2, 8]: 0.9346

Nc1ccc(C(=O)[O-])c(O)c1.O.O.[Na+] [Sodium 4-aminosalicylate (dihydrate)]
Cholesterol-free media + simvastatin (0.04 μM) [1, 9]: 1.473 | Complete Media [1, 10]: 1.188 | Difference [1, 11]: −0.29 | Difference [2, 12]: −0.15 | Cholesterol-free [2, 13]: 1.093 | Complete [2, 14]: 0.9477

Acetylspiramycin
Cholesterol-free media + simvastatin (0.04 μM) [1, 15]: 1.237 | Complete Media [1, 16]: 1.1 | Difference [1, 11]: −0.14 | Difference [2, 12]: −0.20 | Cholesterol-free [2, 17]: 1.42 | Complete ([2]; NCI-H292 cells, complete media): 1.224

O=C(O)c1ccc(-n2nc(-c3ccccc3O)nc2-c2ccccc2O)cc1 [Deferasirox]
Cholesterol-free media + simvastatin (0.04 μM) ([1]; drug in cholesterol-free media with simvastatin 0.04 μM): 1.22 | Complete Media ([1]; drug in complete media): 0.9596 | Difference [1, 18]: −0.26 | Cholesterol-free [2, 17]: 1.441 | Complete ([2]; NCI-H292 cells, complete media): 0.9894 | Difference [2, 19]: −0.45

COc1cccc(-c2c(C)n(Cc3c(F)cccc3C(F)(F)F)c(=O)n(C[C@H](NCCCC(=O)O)c3ccccc3)c2=O)c1F [(R)-Elagolix]
Cholesterol-free media + simvastatin (0.04 μM) [1, 15]: 1.16 | Complete Media [1, 16]: 1.077 | Difference [1, 18]: −0.08 | Difference [2, 6]: −0.49 | Cholesterol-free [2, 7]: 1.394 | Complete [2, 8]: 0.8996

O=C(O)/C=C/C(=O)O [Fumaric acid]
Cholesterol-free media + simvastatin (0.04 μM) [1, 9]: 1.117 | Complete Media [1, 10]: 0.8401 | Difference [1, 18]: −0.28 | Cholesterol-free [2, 17]: 1.029 | Complete ([2]; NCI-H292 cells, complete media): 0.6691 | Difference [2, 19]: −0.36

NC(=O)OC[C@H](N)Cc1ccccc1 [Solriamfetol (hydrochloride)]
Cholesterol-free media + simvastatin (0.04 μM) [1, 15]: 0.997 | Complete Media [1, 16]: 1.138 | Difference ([1]; complete media minus cholesterol-free media + simvastatin, […]): 0.14 | Difference [2, 12]: −0.02 | Cholesterol-free [2, 20]: 1.017 | Complete [2, 21]: 1

CCCCN(CCCC)CC(O)c1cc(Cl)cc2c1-c1ccc(Cl)cc1/C2=C/c1ccc(Cl)cc1 (centres unmarked) [Lumefantrine]
Cholesterol-free media + simvastatin (0.04 μM) [1, 3]: 0.8537 | Complete Media [1, 4]: 0.9184 | Difference [1, 5]: 0.06 | Cholesterol-free [2, 20]: 0.9552 | Difference ([2]; complete vs cholesterol-free media, >0 enhanced anti-cancer activity, about 0 neutral, <0 antagonist): 0.22

O=c1[nH]c2ccccc2n1CCCN1CCC(n2c(=O)[nH]c3cc(Cl)ccc32)CC1 [Domperidone]
Cholesterol-free media + simvastatin (0.04 μM) [1, 3]: 0.9833 | Complete Media [1, 4]: 1.061 | Difference [1, 5]: 0.08 | Difference [2, 22]: −0.14 | Cholesterol-free [2, 13]: 1.085 | Complete [2, 14]: 0.9412

CC1(C)O[C@@H]2C[C@H]3[C@@H]4CCC5=CC(=O)CC[C@]5(C)[C@@]4(F)[C@@H](O)C[C@]3(C)[C@]2(C(=O)CCl)O1 [Halcinonide]
Cholesterol-free media + simvastatin (0.04 μM) [1, 3]: 0.5751 | Complete Media [1, 4]: 0.6822 | Difference [1, 5]: 0.11 | Difference [2, 22]: −0.18 | Cholesterol-free [2, 13]: 0.895 | Complete [2, 14]: 0.7117

Sildenafil (citrate)
Cholesterol-free media + simvastatin (0.04 μM) ([1]; cholesterol-free media with simvastatin 0.04 μM, FDA drug library screen (TABLE 2)): 0.9766 | Complete Media ([1]; complete media, FDA drug library screen (TABLE 2)): 0.9106 | Difference ([1]; complete media minus cholesterol-free media + simvastatin (0.04 μM), >0 enhanced anti-cancer activity, about 0 neutral, <0 antagonist): −0.07 | Difference [2, 6]: −0.63 | Cholesterol-free [2, 7]: 1.504 | Complete [2, 8]: 0.8696

CCCCC[C@H](O)/C=C/[C@@H]1[C@@H](C/C=C\CCCC(=O)O)[C@@H](O)C[C@H]1O.NC(CO)(CO)CO [Dinoprost (tromethamine salt)]
Cholesterol-free media + simvastatin (0.04 μM) [1, 9]: 1.671 | Complete Media [1, 10]: 1.083 | Difference [1, 18]: −0.59 | Cholesterol-free [2, 17]: 1.291 | Complete ([2]; NCI-H292 cells, complete media): 0.9605 | Difference [2, 19]: −0.33

COc1c(C)c2c(c(O)c1C/C=C(\C)CCC(=O)OCCN1CCOCC1)C(=O)OC2 [Mycophenolate Mofetil]
Cholesterol-free media + simvastatin (0.04 μM) [1, 15]: 0.7059 | Complete Media [1, 16]: 0.6206 | Difference [1, 18]: −0.09 | Difference ([2]; Complete minus Cholesterol-free, >0 enhanced anti-cancer activity, about 0 neutral, <0 antagonist): −0.01 | Cholesterol-free [2, 20]: 0.3372 | Complete [2, 21]: 0.3232

Reference: US20250144067A1, “PERSONALIZED STARVATION THERAPY FOR CANCER” (Faeth Therapeutics, Inc., priority 2021, published 2025)
